These results are taken from patent publication US8344008B2 (Janssen Pharmaceutica NV, priority 2007, dated 2013).

The structures appear in SMILES notation. pKi: −log10 of the molar value.

For this assay, the target named is T1, recombinant human LTA4 hydrolase (rhLTA4H) (Homo sapiens, UniProt P09960).
T1 construct: made in house; host or cells: Spodoptera frugiperda (Sf-9) cells, baculovirus (pFastBac1)
T1 sequence (P09960 1-611): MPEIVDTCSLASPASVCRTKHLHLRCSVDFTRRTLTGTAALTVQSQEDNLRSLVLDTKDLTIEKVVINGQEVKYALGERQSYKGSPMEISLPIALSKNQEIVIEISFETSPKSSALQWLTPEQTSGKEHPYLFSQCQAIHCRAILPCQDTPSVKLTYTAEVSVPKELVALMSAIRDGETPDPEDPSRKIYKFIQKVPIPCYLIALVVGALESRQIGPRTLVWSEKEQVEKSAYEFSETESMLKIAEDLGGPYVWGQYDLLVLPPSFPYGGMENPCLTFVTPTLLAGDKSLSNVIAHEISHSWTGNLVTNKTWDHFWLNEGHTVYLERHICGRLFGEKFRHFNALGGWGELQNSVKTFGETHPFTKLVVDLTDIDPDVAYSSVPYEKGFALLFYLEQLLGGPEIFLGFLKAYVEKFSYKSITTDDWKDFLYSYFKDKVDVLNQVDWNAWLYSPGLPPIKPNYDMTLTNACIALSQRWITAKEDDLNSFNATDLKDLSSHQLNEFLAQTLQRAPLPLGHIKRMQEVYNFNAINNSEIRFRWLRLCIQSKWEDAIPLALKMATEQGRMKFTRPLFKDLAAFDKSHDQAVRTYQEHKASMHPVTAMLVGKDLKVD
The assay is described as follows: Recombinant Human LTA4 Hydrolase Assay for LTA4 Hydrolase Inhibitor Activity. The assay is classed as biochemical. The conditions noted are these: average of results obtained; LTB4 quantified by enzyme-linked immunoassay. The method, then: Biological Methods: Recombinant Human LTA4 Hydrolase Assay for LTA4 Hydrolase Inhibitor Activity
Compounds of the present invention were tested for LTA4 hydrolase inhibitor activity against recombinant human LTA4 hydrolase (rhLTA4H). Vectors were prepared and used to express rhLTA4H essentially as follows: LTA4 hydrolase encoding DNA was amplified by polymerase chain reaction (PCR) using a human placental cDNA library as a template. Oligonucleotide primers for the PCR reaction were based on the 5′-end, and the complement of the 3′-end, of the published nucleotide sequence for the coding region of the human LTA4 hydrolase gene (C. D. Funk et al., Proc. Natl. Acad. Sci. USA 1987, 84:6677-6681). The amplified 1.9 kb DNA fragment encoding LTA4 hydrolase was isolated and cloned into the pFastBac1 vector (Invitrogen). Recombinant baculovirus was generated as described by the manufacturer, and used to infect Spodoptera frugiperda (Sf-9) cells. Recombinant LTA4 hydrolase enzyme was purified from the infected Sf-9 cells essentially as described by J. K. Gierse et al. (Protein Expression and Purification 1993, 4:358-366). The purified enzyme solution was adjusted to contain 0.29 mg/mL LTA4 hydrolase, 50 mM Tris (pH 8.0), 150 mM NaCl, 5 mM dithiothreitol, 50% glycerol, and EDTA-free Complete protease inhibitor cocktail (Roche). The specific activity of the enzyme was about 3.8 μmol/min/mg.
LTA4 substrate was prepared from the methyl ester of LTA4 (Cayman Chemical) by treatment with 67 equiv of NaOH under nitrogen at rt for 40 min. The LTA4 substrate in its free acid form was kept frozen at −80° C. until needed. Each compound was diluted to different concentrations in assay buffer (0.1 M potassium phosphate (pH 7.4), 5 mg/mL fatty acid free BSA) containing 10% DMSO. A 25-uL aliquot of each compound dilution was incubated for 10 min at rt with an equal volume of assay buffer containing 36 ng of recombinant human LTA4H. The solution was then adjusted to 200 μL with assay buffer. LTA4 (free acid) was thawed and diluted in assay buffer to a concentration of 357 ng/mL, and 25 μL (9 ng) of LTA4 substrate was added to the reaction mixture (total volume=225 μL) at time zero. Each reaction was carried out at rt for 10 min. The reaction was stopped by diluting 10 μL of the reaction mixture with 200 μL of assay buffer. LTB4 was quantified in the diluted sample by a commercially available enzyme-linked immunoassay (Cayman Chemical Co.), as recommended by the manufacturer. Positive controls, under essentially identical conditions but without addition of an inhibitor compound, and negative controls, containing all assay components except enzyme, were routinely run in each experiment. […]
Results for the compounds tested in this assay are presented in Table 1 as an average of results obtained.
A word on the pKi: it is −log10 of the Ki, conventionally taken in molar units. For the compound `CS(=O)(=O)N1C[C@H]2C[C@@H]1CN2CCOc1ccc(Oc2nc3c(Cl)cccc3s2)cc1` [Example 203, (R,R)-4-Chloro-2-{4-[2-(5-methanesulfonyl-2,5-diaza-bicyclo[2.2.1]hept-2-yl)-ethoxy]-phenoxy}-benzothiazole], the pKi was 6.53.

In the case of `Cn1cnc(S(=O)(=O)N2CC3CN(Cc4ccc(Oc5nc6ccccc6s5)cc4)CC3C2)c1` (stereo not drawn) [Example 122, 2-{4-[5-(1-Methyl-1H-imidazole-4-sulfonyl)-hexahydro-pyrrolo[3,4-c]pyrrol-2-ylmethyl]-phenoxy}-benzothiazole], the pKi was 6.86.

In the case of `NC(=O)N1[C@@H]2CC[C@H]1C[C@@H](NCCOc1ccc(Oc3nc4cc(Cl)ccc4s3)cc1)C2` [Example 257, meso-endo-3-{2-[4-(5-Chloro-benzothiazol-2-yloxy)-henoxy]-ethylamino}-8-aza-bicyclo[3.2.1]octane-8-carboxylic acid amide], the pKi was 6.31.

Consider `NC(=O)N[C@@H]1C[C@H]2CC[C@@H](C1)N2Cc1ccc(Oc2nc3c(Cl)cccc3s2)cc1` [Example 229, meso-exo-{8-[4-(4-Chloro-benzothiazol-2-yloxy)-benzyl]-8-aza-bicyclo[3.2.1]oct-3-yl}-urea], for which the pKi was 7.70.

As for `NC(=O)N[C@H]1C[C@H]2CC[C@@H](C1)N2CCOc1ccc(Oc2nc3cccc(Cl)c3s2)cc1` [Example 278, meso-endo-(8-{2-[4-(7-Chloro-benzothiazol-2-yloxy)-phenoxy]-ethyl}-8-aza-bicyclo[3.2.1]oct-3-yl)-urea], the pKi is 5.76.

Consider `NCC(=O)N[C@H]1C[C@H]2CC[C@@H](C1)N2Cc1ccc(Oc2nc3ccccc3s2)cc1` [Example 56, meso-endo-2-Amino-N-{8-[4-(benzothiazol-2-yloxy)-benzyl]-8-aza-bicyclo[3.2.1]oct-3-yl}-acetamide], for which the pKi is 7.52.

As to `NC(=O)N1C[C@@H]2CCN(Cc3ccc(Oc4nc5ccccc5s4)cc3)[C@@H]2C1` [Example 137, (S,S)-1-[4-(Benzothiazol-2-yloxy)-benzyl]-hexahydro-pyrrolo[3,4-b]pyrrole-5-carboxylic acid amide], the pKi was 7.74.

Take `CC(=O)N[C@@H]1C[C@H]2CC[C@@H](C1)N2CCOc1ccc(Oc2nc3c(Cl)cccc3s2)cc1` [Example 240, meso-exo-N-(8-{2-[4-(4-Chloro-benzothiazol-2-yloxy)-phenoxy]-ethyl}-8-aza-bicyclo[3.2.1]oct-3-yl)-acetamide]: the pKi was 6.29.

As to `CS(=O)(=O)N1C[C@@H]2C[C@H]1CN2Cc1ccc(Cc2nc3ccccc3s2)cc1` [Example 45, (S,S)-2-[4-(5-Methanesulfonyl-2,5-diaza-bicyclo[2.2.1]hept-2-ylmethyl)-benzyl]-benzothiazole], the pKi is 6.72.

As for `CC(=O)N[C@H]1C[C@H]2CC[C@@H](C1)N2Cc1ccc(Oc2nc3c(C)cccc3s2)cc1` [Example 72, meso-endo-N-{8-[4-(4-Methyl-benzothiazol-2-yloxy)-benzyl]-8-aza-bicyclo[3.2.1]oct-3-yl}-acetamide], the pKi was 7.01.

Turning to `CS(=O)(=O)N1C2CCC1CN(Cc1ccc(Oc3nc4ccccc4s3)cc1)C2` [Example 57, meso-2-[4-(8-Methanesulfonyl-3,8-diaza-bicyclo[3.2.1]oct-3-ylmethyl)-phenoxy]-benzothiazole], the pKi was 6.76.

In the case of `CC(=O)N1[C@@H]2CC[C@H]1C[C@H](NCCOc1ccc(Oc3nc4cccc(F)c4s3)cc1)C2` [Example 263, meso-exo-1-(3-{2[4-(7-Fluoro-benzothiazole-2-yloxy)-phenoxy]-ethylamino}8-aza-bicyclo[3.2.1]oct-8-yl)-ethanone], the pKi was 6.72.

On to `O=C(NCc1ccco1)N1CC2CN(Cc3ccc(Oc4nc5ccccc5s4)cc3)CC2C1` (stereo not drawn) [Example 131, 5-[4-(Benzothiazol-2-yloxy)-benzyl]-hexahydro-pyrrolo[3,4-c]pyrrole-2-carboxylic acid (furan-2-ylmethyl)-amide], for which the pKi is 7.89.

Regarding `CC(=O)N1C[C@H]2C[C@@H]1CN2Cc1ccc(Oc2nc3ccccc3s2)cc1` [Example 3, (R,R)-1-{5-[4-(Benzothiazol-2-yloxy)-benzyl]-2,5-diaza-bicyclo[2.2.1]hept-2-yl}-ethanone], the pKi is 8.15.

As to `O=C(C1CCC1)N1CC2CN(Cc3ccc(Oc4nc5ccccc5s4)cc3)CC2C1` (stereo not drawn) [Example 104, {5-[4-(Benzothiazol-2-yloxy)-benzyl]-hexahydro-pyrrolo[3,4-c]pyrrol-2-yl}-cyclobutyl-methanone], the pKi is 7.21.

`O=C(C1CCOCC1)N1CC2CN(Cc3ccc(Oc4nc5ccccc5s4)cc3)CC2C1` (stereo not drawn) [Example 103, {5-[4-(Benzothiazol-2-yloxy)-benzyl]-hexahydro-pyrrolo[3,4-c]pyrrol-2-yl}-(tetrahydro-pyran-4-yl)-methanone]: the pKi was 7.29.

In the case of `NC(=O)N1[C@@H]2CC[C@H]1C[C@H](NCCc1ccc(Oc3nc4c(F)cccc4s3)cc1)C2` [Example 212, meso-exo-3-{2-[4-(4-Fluoro-benzothiazol-2-yloxy)-phenyl]-ethylamino}-8-aza-bicyclo[3.2.1]octane-8-carboxylic acid amide], the pKi is 6.61.

Regarding `NCC(=O)N1CC2CCN(Cc3ccc(Oc4nc5ccccc5s4)cc3)C2C1` (stereo not drawn) [Example 96, 2-Amino-1-{1-[4-(benzothiazol-2-yloxy)-benzyl]-hexahydro-pyrrolo[3,4-b]pyrrol-5-yl}-ethanone], the pKi was 7.59.

With `NC(=O)N[C@H]1C[C@H]2CC[C@@H](C1)N2Cc1ccc(Oc2nc3ccccc3s2)cc1` [Example 60, meso-endo-{8-[4-(Benzothiazol-2-yloxy)-benzyl]-8-aza-bicyclo[3.2.1]oct-3-yl}-urea], the pKi is 8.70.

With `NC(=O)N[C@@H]1C[C@H]2CC[C@@H](C1)N2CCOc1ccc(Oc2nc3cccc(F)c3s2)cc1` [Example 282, meso-exo-(8-{2-[4-(7-Fluoro-benzothiazol-2-yloxy)-phenoxy]-ethyl}-8-aza-bicyclo[3.2.1]oct-3-yl)-urea], the pKi was 8.10.

Take `CC(=O)N1CCC2CN(Cc3ccc(Oc4nc5ccccc5s4)cc3)CC2C1` (stereo not drawn) [Example 89, 1-{2-[4-(Benzothiazol-2-yloxy)-benzyl]-octahydro-pyrrolo[3,4-c]pyridin-5-yl}-ethanone]: the pKi is 8.22.

For the compound `CC(=O)N1C[C@H]2C[C@@H]1CN2CCOc1ccc(Oc2nc3cccc(F)c3s2)cc1` [Example 218, (R,R)-1-(5-{2-[4-(7-Fluoro-benzothiazol-2-yloxy)-phenoxy]-ethyl}-2,5-diaza-bicyclo[2.2.1]hept-2-yl)-ethanone], the negative logarithm of the Ki (pKi) is 7.70.

As for `CC(=O)N[C@@H]1C[C@H]2CC[C@@H](C1)N2CCc1ccc(Oc2nc3cc(F)ccc3s2)cc1` [Example 266, meso-exo-N-(8-{2-[4-(5-Fluoro-benzothiazol-2-yloxy)-phenyl]-ethyl}-8-aza-bicyclo[3.2.1]oct-3-yl)-acetamide], the pKi was 7.19.

In the case of `O=C([C@@H]1CCCO1)N1CC2CN(Cc3ccc(Oc4nc5ccccc5s4)cc3)CC2C1` (stereo partly drawn) [Example 101, (S)-{5-[4-(Benzothiazol-2-yloxy)-benzyl]-hexahydro-pyrrolo[3,4-c]pyrrol-2-yl}-(tetrahydro-furan-2-yl)-methanone], the negative-log Ki (pKi) is 6.97.
